Measured values taken from patent US4503055A, “Derivatives of [4-(piperazin-1-yl-phenyloxymethyl)-1,3-dioxolan-2-ylmethyl]-1H-imidazol es and 1H-1,2,4-triazoles” (Janssen Pharmaceutica, N.V., priority 1981, dated 1985).

Assays:
Candida albicans [1] = assay: Activity against crop candidosis in turkeys; format: in vivo; conditions: medicated feed for 13 consecutive days from day of infection, crops of 50% of animals completely negative for Candida albicans
Procedure: Turkeys of 14 days old are infected in the crop with 4.10^6 Candida albicans cells, grown on Sabouraud broth for 48 hours at 37° C. and diluted with saline. The volume of the inoculum is 1 ml. The drugs under investigation are premixed in 500 mg of lacton and thereafter admixed in 1000 g of meal without any additives. The concentration of the drug under investigation in the meal is expressed in mg/kg. The animals are given the medicated feed for 13 consecutive days starting on the day of infection. At the end of the experiment all animals are sacrificed. At autopsy the crops are removed, emptied and grinded in an ultra-turrax mixer in 15 ml of sterile saline. Colony counting is done on Sabouraud agar and the results given in the table represents the ED50, i.e., the dose of the drug whereby the crops of 50% of the animals are completely negative for Candida albicans.

Candida albicans [2] = assay: Activity against vaginal candidosis in rats; format: in vivo, Female Wistar rats; conditions: 336 h, oral, once a day for two days from day of infection, active at the 14th day after infection, read-out: Vaginal candidosis in rats: lowest effective dose in mg/kg orally
Procedure: Female Wistar rats of ±100 g body weight are used. They are ovariectomized and hysterectomized and after three weeks of recovery, 100 μg of oestradiol undecylate in sesame oil is given subcutaneously once a week for 3 consecutive weeks. The thus induced pseudooestrus is controlled by microscopic examination of vaginal smears. Food and water are left available ad libitum. The rats are infected intravaginally with 8.10^5 cells of Candida albicans, grown on Sabouraud broth for 48 hours at 37° C. and diluted with saline. The date of infection varies from day +25 to day +32 after surgical intervention, depending on the appearance of signs of induced pseudooestrus. The drugs under investigation are administered orally once a day for two days starting from the day of infection. For each experiment there are placebo treated controls. The results are assessed by taking vaginal smears with sterile swabs on several days after the infection. The swabs are put into Sabouraud broth in petri-dishes and incubated for 48 hours at 37° C. If no growth of Candida albicans occurs, i.e., when the animals are negative at the end of the experiment, this is due to drug administration because it never happens in placebo treated controls. The table below gives the lowest oral dose of the drug under investigation which is found active at the 14th day after infection.

Row | Compound | Crop candidosis in turkeys: ED50 in mg/kg feed (Candida albicans [1]) [mg/kg feed] | minimal effective dose (Candida albicans [2]) [mg/kg]
1 | Clc1ccc(CN2CCN(c3ccc(OC[C@H]4CO[C@](Cn5ccnc5)(c5ccc(Cl)cc5Cl)O4)cc3)CC2)cc1 (relative stereo) | < 31 | 
2 | CCOC(=O)COC(=O)N1CCN(c2ccc(OC[C@H]3CO[C@](Cn4ccnc4)(c4ccc(Cl)cc4Cl)O3)cc2)CC1 (relative stereo) | 31 | 2.5
3 | Cc1ccc(NC(=O)CN2CCN(c3ccc(OC[C@H]4CO[C@](Cn5ccnc5)(c5ccc(Cl)cc5Cl)O4)cc3)CC2)cc1 (relative stereo) | 16 | 
4 | Cc1ccc(S(=O)(=O)N2CCN(c3ccc(OC[C@H]4CO[C@](Cn5cncn5)(c5ccc(Cl)cc5Cl)O4)cc3)CC2)cc1 (relative stereo) | < 31 | 
5 | O=C(C=Cc1ccc(Cl)cc1)N1CCN(c2ccc(OC[C@H]3CO[C@](Cn4cncn4)(c4ccc(Cl)cc4Cl)O3)cc2)CC1 | 16 | 
6 | O=C(CN1CCN(c2ccc(OC[C@H]3CO[C@](Cn4ccnc4)(c4ccc(Cl)cc4Cl)O3)cc2)CC1)Nc1c(Cl)cccc1Cl (relative stereo) | 31 | 2.5
7 | Cc1ccccc1NC(=O)CN1CCN(c2ccc(OC[C@H]3CO[C@](Cn4ccnc4)(c4ccc(Cl)cc4Cl)O3)cc2)CC1 (relative stereo) | 16 | 2.5
